Test results reported in patent US11685734B2, “ATM kinase inhibitors and compositions and methods of use thereof” (CHDI Foundation, Inc., priority 2019, dated 2023).

Columns and labels:
[1] = biological target: Recombinant, full length human FLAG-tagged ATM (Homo sapiens (Human), UniProt Q13315); test: ATM ELISA for p53 S15 phosphorylation; format: biochemical; details: for IC50: 0.75 nM ATM, 25 nM p53, 10 μM ATP, 30 min at 20° C., read-out: ATM BIO IC50
Procedure: ATM: Recombinant, full length human FLAG-tagged ATM activity (Eurofins 14-933) was measured in an ELISA for p53 S15 phosphorylation, in a 384 well V-bottom polypropylene plate (Greiner Bio One 781280). Reactions contained 0.75 nM ATM, 25 nM full length myc tagged p53 (Eurofins 23-034), 10 μM UltraPure ATP (Promega V915B) and serial dilutions of inhibitors (0.1% DMSO final) in 25 mM HEPES, pH 7.5. 5 mM MgCl2, 2.5 mM MnCl2, 0.006% Brij-35, 0.5% glycerol, 0.1 mg/ml BSA, 0.5 mM DTT and were allowed to proceed for 30 min at 20° C. 70 mM EDTA final terminated the kinase reactions. An aliquot of the terminated reaction (25 μl) was transferred to a 384-well, high binding microplate (Greiner Bio One 781061), precoated with anti-myc capture antibody overnight (Millipore 05-724) diluted in 1:1000 in PBS, then blocked with Odyssey blocking buffer (LI-COR Biosciences 92740000) for 60 min at 20° C. The terminated reaction was allowed to capture for 2 h at 20° C. Phosphorylation was measured using an antibody specific to p53 S15 phosphorylation (1:5000 Abcam ab38497), anti-rabbit HRP (1:1000 Cell Signalling Technology, 7074) and TMB (ab171522). Antibodies were diluted in Odyssey blocking buffer and incubated for 60 min at 20° C. Three washes with PBS containing 0.05% (v/v) Tween 20 (PBS-T) were performed between each incubation. The TMB reaction was stopped with an equal volume of 0.2 M sulfuric acid and absorbance read at 450 nm on the Perkin Elmer Envision within 30 min of terminating the reaction. […] IC50 values represent the mean from at least two independent experiments.

cellular ATM activity = cellular ATM activity (Homo sapiens (Human), UniProt Q13315); test: Inhibition of cellular ATM activity: etoposide-stimulated KAP1 phosphorylation in U20S cells; format: cell-based; details: 100 μM etoposide, 60 min, read-out: ATM CELL IC50
cellular ATM activity, sequence (Q13315 whole entry): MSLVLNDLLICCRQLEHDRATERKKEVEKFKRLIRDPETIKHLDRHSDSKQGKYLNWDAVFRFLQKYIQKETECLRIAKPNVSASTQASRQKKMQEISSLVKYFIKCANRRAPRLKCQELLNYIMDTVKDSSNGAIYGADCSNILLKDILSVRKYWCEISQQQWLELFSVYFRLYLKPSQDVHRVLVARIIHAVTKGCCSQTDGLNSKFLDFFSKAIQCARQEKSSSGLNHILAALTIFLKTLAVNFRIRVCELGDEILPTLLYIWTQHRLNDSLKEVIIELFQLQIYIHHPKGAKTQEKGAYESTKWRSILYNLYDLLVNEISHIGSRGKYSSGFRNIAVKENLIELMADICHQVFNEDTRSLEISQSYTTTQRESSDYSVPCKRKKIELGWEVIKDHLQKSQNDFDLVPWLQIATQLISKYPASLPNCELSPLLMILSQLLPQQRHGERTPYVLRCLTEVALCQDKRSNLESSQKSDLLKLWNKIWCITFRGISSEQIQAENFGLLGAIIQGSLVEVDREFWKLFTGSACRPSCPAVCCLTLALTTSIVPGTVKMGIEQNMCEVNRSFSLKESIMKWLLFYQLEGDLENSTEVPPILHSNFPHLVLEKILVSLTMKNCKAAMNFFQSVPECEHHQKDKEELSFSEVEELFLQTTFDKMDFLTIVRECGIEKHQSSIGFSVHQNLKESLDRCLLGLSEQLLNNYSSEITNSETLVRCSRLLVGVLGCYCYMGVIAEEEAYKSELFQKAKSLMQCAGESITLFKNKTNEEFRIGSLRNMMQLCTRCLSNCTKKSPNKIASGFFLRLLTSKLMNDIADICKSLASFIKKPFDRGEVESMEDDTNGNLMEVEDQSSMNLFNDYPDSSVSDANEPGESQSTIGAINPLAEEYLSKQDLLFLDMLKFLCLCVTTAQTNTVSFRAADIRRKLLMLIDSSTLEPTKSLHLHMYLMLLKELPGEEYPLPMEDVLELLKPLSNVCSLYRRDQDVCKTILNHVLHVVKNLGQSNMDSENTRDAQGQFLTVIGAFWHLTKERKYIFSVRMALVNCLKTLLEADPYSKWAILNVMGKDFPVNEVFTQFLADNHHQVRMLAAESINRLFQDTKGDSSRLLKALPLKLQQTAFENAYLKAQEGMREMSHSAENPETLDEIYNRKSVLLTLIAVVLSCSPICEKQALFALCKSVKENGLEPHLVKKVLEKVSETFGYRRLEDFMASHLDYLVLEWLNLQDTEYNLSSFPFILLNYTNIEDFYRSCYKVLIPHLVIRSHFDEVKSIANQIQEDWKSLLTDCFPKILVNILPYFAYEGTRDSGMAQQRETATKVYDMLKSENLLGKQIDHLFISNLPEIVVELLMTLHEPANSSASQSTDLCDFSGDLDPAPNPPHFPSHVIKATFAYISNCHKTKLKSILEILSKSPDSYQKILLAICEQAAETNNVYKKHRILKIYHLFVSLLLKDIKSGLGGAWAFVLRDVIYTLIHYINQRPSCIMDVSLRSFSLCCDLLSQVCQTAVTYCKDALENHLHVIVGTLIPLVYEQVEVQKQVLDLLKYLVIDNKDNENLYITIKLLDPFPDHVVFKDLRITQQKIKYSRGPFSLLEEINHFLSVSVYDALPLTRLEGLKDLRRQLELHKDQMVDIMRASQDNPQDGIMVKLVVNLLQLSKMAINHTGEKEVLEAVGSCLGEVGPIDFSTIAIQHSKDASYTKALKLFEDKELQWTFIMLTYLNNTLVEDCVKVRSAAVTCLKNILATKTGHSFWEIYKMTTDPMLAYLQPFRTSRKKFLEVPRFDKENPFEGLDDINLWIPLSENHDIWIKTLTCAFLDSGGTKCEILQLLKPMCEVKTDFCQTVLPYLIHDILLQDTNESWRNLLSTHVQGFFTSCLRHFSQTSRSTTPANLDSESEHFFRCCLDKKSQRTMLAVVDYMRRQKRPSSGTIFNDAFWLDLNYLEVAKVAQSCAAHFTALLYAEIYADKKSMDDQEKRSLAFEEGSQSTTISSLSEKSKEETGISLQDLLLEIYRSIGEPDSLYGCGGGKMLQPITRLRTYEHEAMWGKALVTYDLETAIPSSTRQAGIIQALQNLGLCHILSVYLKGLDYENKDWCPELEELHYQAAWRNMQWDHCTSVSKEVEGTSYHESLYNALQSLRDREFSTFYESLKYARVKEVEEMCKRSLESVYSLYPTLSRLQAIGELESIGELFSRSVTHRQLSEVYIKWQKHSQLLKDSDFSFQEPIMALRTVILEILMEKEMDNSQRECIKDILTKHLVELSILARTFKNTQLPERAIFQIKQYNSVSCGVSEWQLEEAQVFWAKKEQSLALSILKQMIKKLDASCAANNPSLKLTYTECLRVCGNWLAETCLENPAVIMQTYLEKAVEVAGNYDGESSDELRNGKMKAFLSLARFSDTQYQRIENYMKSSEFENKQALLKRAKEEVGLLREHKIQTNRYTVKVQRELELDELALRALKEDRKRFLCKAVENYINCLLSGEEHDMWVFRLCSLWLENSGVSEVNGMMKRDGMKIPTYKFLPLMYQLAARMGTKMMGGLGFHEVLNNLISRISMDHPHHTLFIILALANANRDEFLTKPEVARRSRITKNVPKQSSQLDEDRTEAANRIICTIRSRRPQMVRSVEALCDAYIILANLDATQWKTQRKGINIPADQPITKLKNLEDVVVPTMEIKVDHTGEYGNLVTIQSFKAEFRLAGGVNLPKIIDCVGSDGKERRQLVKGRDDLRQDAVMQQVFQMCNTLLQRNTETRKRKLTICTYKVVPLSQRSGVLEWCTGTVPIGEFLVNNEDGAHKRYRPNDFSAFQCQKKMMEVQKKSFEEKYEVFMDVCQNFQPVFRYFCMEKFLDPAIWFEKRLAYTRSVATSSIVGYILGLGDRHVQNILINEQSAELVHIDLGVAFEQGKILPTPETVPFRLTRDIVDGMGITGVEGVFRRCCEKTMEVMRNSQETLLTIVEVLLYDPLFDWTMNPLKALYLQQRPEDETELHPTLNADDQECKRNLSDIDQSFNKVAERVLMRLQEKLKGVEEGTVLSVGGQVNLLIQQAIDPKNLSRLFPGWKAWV
Procedure: Inhibition of cellular ATM activity was determined by changes in etoposide-stimulated KAP1 phosphorylation, based on the work of Guo et al. 2014.
Cryopreserved U20S cells were plated overnight at 6 k cells/well in black walled, clear bottomed 384 well plates (Greiner Bio One 781090). After overnight incubation (37 C, 5% CO2), cells were incubated with titrations of test compounds (0.3% DMSO final) in the presence of 100 μM etoposide (Sigma E1383) to stimulate ATM via induction of double stranded DNA breaks. After 60 min, cells were fixed using 100% cold methanol and incubated at −20° C. for 10 min. Fixed cells were washed with PBS containing 0.05% (v/v) Tween 20 (PBS-T) prior to a 60 minute blocking step in Odyssey blocking buffer (LI-COR Biosciences 92740000). Primary antibodies (1:1000 phosphorylated KAP1: Cell Signalling Technology 4127, 1:5000 total KAP1: Cell Signaling Technology 5868) were diluted in Odyssey blocking buffer and incubated overnight at 4° C., before addition of IRDye(R) conjugated secondary antibodies (LI-COR Biociences 926-32211, LI-COR Biosciences 926-68070) diluted 1:2000 in Odyssey blocking buffer for 60 min at room temperature and detection by LI-COR Odyssey (ImageStudio version 2.1.10, focus offset 4 mm, resolution 169 μm, lowest quality, intensities of 1 and 3 for 700 and 800 channels respectively). Immunoreactivity was quantified and the ratio of phosphorylated KAP1 calculated by dividing by the total KAP1 immunoreactivity. The percentage of inhibition was calculated for each concentration of compound using 100% (100 μM etoposide+30 μM KU-60019) and 0% effect controls (100 μM etoposide+DMSO). IC50 values represent the mean from at least two independent experiments.

Recombinant, full length human FLAG-tagged ATM, sequence (Q13315 whole entry): as above

SMILES: COCCOc1cccc(C[C@H]2CCCCCN2c2nc(N3CCO[C@H](C)C3)cc(=O)[nH]2)c1 [Example 308, 2-((R)-2-(3-(2-methoxyethoxy)benzyl)azepan-1-yl)-6-((R)-2-methylmorpholino)pyrimidin-4(3H)-one]
- IC50 [1]: 14.3 nM
- IC50 (cellular ATM activity): 560 nM

SMILES: O=c1cc(N2CCOCC2)nc(N2CCC[C@@H]2Cc2ccccc2)[nH]1 [Example 178, (R)-2-(2-benzylpyrrolidin-1-yl)-6-morpholinopyrimidin-4-ol]
- IC50 [1]: 8 nM
- IC50 (cellular ATM activity): 451 nM

SMILES: COc1ccccc1C[C@H]1[C@@H]2C[C@@H]2CN1c1cc(N2CCOCC2)cc(=O)[nH]1 [Example 126]
- IC50 [1]: 6.9 nM
- IC50 (cellular ATM activity): 388 nM

SMILES: O=c1cc(N2CCOCC2)nc(N2CCCCC[C@@H]2Cc2ccsc2)[nH]1 [Example 248]
- IC50 [1]: 3.9 nM
- IC50 (cellular ATM activity): 421 nM

SMILES: O=c1cc(N2CCOCC2)cc(N2CCCCC[C@@H]2Cc2ccc(F)cc2)[nH]1 [Example 52, (R)-6-(2-(4-fluorobenzyl)azepan-1-yl)-4-morpholino pyridin-2(1H)-one]
- IC50 [1]: 35.3 nM
- IC50 (cellular ATM activity): 839 nM

SMILES: COc1ccccc1C[C@H]1CCCCN1c1nc(N2CCOCC2)cc(=O)[nH]1 [Example 197]
- IC50 [1]: 14.9 nM
- IC50 (cellular ATM activity): 711 nM

SMILES: CC1(C)CCCN(c2nc(N3CCOCC3)cc(=O)[nH]2)[C@@H](Cc2ccccc2)C1 [Example 242]
- IC50 [1]: 84.5 nM
- IC50 (cellular ATM activity): 9760 nM

SMILES: C[C@H]1CCCN(c2nc(N3CCO[C@H](C)C3)cc(=O)[nH]2)[C@@H](Cc2ccccc2)C1 [Example 312, 2-((2R,4S)-2-benzyl-4-methylazepan-1-yl)-6-((R)-2-methylmorpholino)pyrimidin-4(3H)-one]
- IC50 [1]: 44.7 nM
- IC50 (cellular ATM activity): 1740 nM

SMILES: C[C@@H]1CN(c2cc(=O)[nH]c(N3C[C@@H]4C[C@@H]4[C@@H]3Cc3ccccc3)n2)CCO1 [Example 292, 2-((1S,2S,5R)-2-benzyl-3-azabicyclo[3.1.0]hexan-3-yl)-6-((R)-2-methylmorpholino)pyrimidin-4(3H)-one]
- IC50 [1]: 5.5 nM
- IC50 (cellular ATM activity): 1310 nM

SMILES: Cc1cc(C[C@H]2CCCN2c2nc(N3CCOCC3)cc(=O)[nH]2)cc(C)n1 [Example 188]
- IC50 [1]: 28.7 nM
- IC50 (cellular ATM activity): 1060 nM

SMILES: COc1cc(F)ccc1C[C@H]1CCCCCN1c1nc(N2CCOCC2)cc(=O)[nH]1 [Example 228]
- IC50 [1]: 69.5 nM
- IC50 (cellular ATM activity): 756 nM

SMILES: COC[C@@H](C)Oc1ccc(C[C@H]2CCCN2c2cc(N3CCOCC3)cc(=O)[nH]2)cc1 [Example 145, 6-((R)-2-(4-(((R)-1-methoxypropan-2-yl)oxy)benzyl)pyrrolidin-1-yl)-4-morpholinopyridin-2(1H)-one]
- IC50 [1]: 65.6 nM
- IC50 (cellular ATM activity): 2030 nM

SMILES: COc1ccccc1C[C@H]1[C@H](C)CCN1c1nc(N2CCOCC2)cc(=O)[nH]1 [Example 217]
- IC50 [1]: 7.1 nM
- IC50 (cellular ATM activity): 499 nM

SMILES: C[C@@H](c1ccccc1)[C@@H]1CCCN1c1nc(N2CCOCC2)cc(=O)[nH]1 [Example 250, 6-morpholino-2-((S)-2-((S)-1-phenylethyl)pyrrolidin-1-yl)pyrimidin-4(3H)-one]
- IC50 [1]: 5 nM
- IC50 (cellular ATM activity): 153 nM

SMILES: COc1ccccc1C[C@H]1[C@H](C)CCN1c1nc(N2CCO[C@H](C)C2)cc(=O)[nH]1 [Example 296, 2-((2S,3R)-2-(2-methoxybenzyl)-3-methylpyrrolidin-1-yl)-6-((R)-2-methylmorpholino)pyrimidin-4(3H)-one]
- IC50 [1]: 40.5 nM
- IC50 (cellular ATM activity): 1850 nM

SMILES: O=c1cc(N2CCOCC2)nc(N2C[C@@H]3C[C@@H]3[C@@H]2Cc2ccc(F)cc2)[nH]1 [Example 207]
- IC50 [1]: 4.4 nM
- IC50 (cellular ATM activity): 207 nM

SMILES: O=c1cc(N2CCOCC2)cc(N2CCC(F)(F)[C@@H]2Cc2ccccc2)[nH]1 [Example 98, (S)-6-(2-benzyl-3,3-difluoropyrrolidin-1-yl)-4-morpholinopyridin-2(1H)-one]
- IC50 [1]: 38.4 nM
- IC50 (cellular ATM activity): 925 nM

SMILES: C[C@@H]1CN(c2cc(=O)[nH]c(N3CCCCC[C@@H]3Cc3ccc(F)cc3)n2)CCO1 [Example 304, 2-((R)-2-(4-fluorobenzyl)azepan-1-yl)-6-((R)-2-methylmorpholino)pyrimidin-4(3H)-one]
- IC50 [1]: 19.2 nM
- IC50 (cellular ATM activity): 957 nM

SMILES: O=c1cc(N2CCOCC2)nc(N2CCCCC[C@@H]2Cc2ccc(F)cc2)[nH]1 [Example 222]
- IC50 [1]: 5.7 nM
- IC50 (cellular ATM activity): 163 nM

SMILES: O=c1cc(N2CCOCC2)nc(N2CCCC[C@@H]2Cc2ccccc2)[nH]1 [Example 199]
- IC50 [1]: 2.8 nM
- IC50 (cellular ATM activity): 125 nM

SMILES: O=c1cc(N2CCOCC2)cc(N2CC[C@@H](OC(F)F)[C@@H]2Cc2ccccc2)[nH]1 [Example 90, 6-((2S,3R)-2-benzyl-3-(difluoromethoxy)pyrrolidin-1-yl)-4-morpholinopyridin-2(1H)-one]
- IC50 [1]: 39.1 nM
- IC50 (cellular ATM activity): 874 nM

SMILES: COc1ccccc1CC1CC(F)(F)CCCN1c1nc(N2CCOCC2)cc(=O)[nH]1 (stereo not drawn) [Example 239]
- IC50 [1]: 36.5 nM
- IC50 (cellular ATM activity): 2020 nM

SMILES: O=c1cc(N2CCOCC2)cc(N2CCC[C@@H]2Cc2cccc(OC3CCOCC3)c2)[nH]1 [Example 146, (R)-4-morpholino-6-(2-(3-((tetrahydro-2H-pyran-4-yl)oxy)benzyl)pyrrolidin-1-yl)pyridin-2(1H)-one]
- IC50 [1]: 74.2 nM
- IC50 (cellular ATM activity): 1860 nM

SMILES: CC1(C)CCCN(c2cc(N3CCOCC3)cc(=O)[nH]2)[C@@H](Cc2ccccc2)C1 [Example 76, (R)-6-(2-benzyl-4,4-dimethylazepan-1-yl)-4-morpholinopyridin-2(1H)-one]
- IC50 [1]: 70.2 nM
- IC50 (cellular ATM activity): 2680 nM

SMILES: CC1COCCN1c1cc(=O)[nH]c(N2CCCC2Cc2ccccc2)n1 (single isomer, unassigned) [Example 339, 2-(2-benzylpyrrolidin-1-yl)-6-(3-methylmorpholino)pyrimidin-4(3H)-one]
- IC50 [1]: 34.5 nM
- IC50 (cellular ATM activity): 1560 nM

SMILES: COCCOc1ccc(C[C@H]2CCCCCN2c2nc(N3CCO[C@H](C)C3)cc(=O)[nH]2)cc1 [Example 309, 2-((R)-2-(4-(2-methoxyethoxy)benzyl)azepan-1-yl)-6-((R)-2-methylmorpholino)pyrimidin-4(3H)-one]
- IC50 [1]: 6.2 nM
- IC50 (cellular ATM activity): 256 nM

SMILES: CO[C@@H]1CCN(c2cc(N3CCOCC3)cc(=O)[nH]2)[C@H]1Cc1ccccc1 [Example 88, 6-((2S,3R)-2-benzyl-3-methoxypyrrolidin-1-yl)-4-morpholinopyridin-2(1H)-one]
- IC50 [1]: 53 nM
- IC50 (cellular ATM activity): 1660 nM

SMILES: CC1C[C@H](Cc2ccccc2)N(c2nc(N3CCO[C@H](C)C3)cc(=O)[nH]2)C1 (single isomer, unassigned) [Example 320]
- IC50 [1]: 90.9 nM
- IC50 (cellular ATM activity): 1680 nM

SMILES: CC(c1ccccc1)C1CCCN1c1nc(N2CCOCC2)cc(=O)[nH]1 (racemic) [Example 252, 6-morpholino-2-((R*)-2-((S*)-1-phenylethyl)pyrrolidin-1-yl)pyrimidin-4(3H)-one]
- IC50 [1]: 63.7 nM
- IC50 (cellular ATM activity): 2290 nM

SMILES: C[C@H]1CCCN(c2nc(N3CCO[C@H](C)C3)cc(=O)[nH]2)[C@@H](Cc2ccc(F)cc2)C1 [Example 313, 2-((2R,4S)-2-(4-fluorobenzyl)-4-methylazepan-1-yl)-6-((R)-2-methylmorpholino)pyrimidin-4(3H)-one]
- IC50 [1]: 42.3 nM
- IC50 (cellular ATM activity): 1660 nM

SMILES: O=c1cc(N2CCOCC2)cc(N2CC[C@@H](F)[C@@H]2Cc2ccccc2)[nH]1 [Example 96, 6-((2S,3R)-2-benzyl-3-fluoropyrrolidin-1-yl)-4-morpholinopyridin-2(1H)-one]
- IC50 [1]: 5.5 nM
- IC50 (cellular ATM activity): 270 nM

SMILES: O=c1cc(N2CCOCC2)cc(N2CCC[C@H]2Cc2ccccc2)[nH]1 [Example 2, (S)-6-(2-benzylpyrrolidin-1-yl)-4-morpholinopyridin-2(1H)-one]
- biological activity in the biochemical assay ([1]; qualitative statement used for stereochemical assignment): lack of biological activity
